From patent US5324832A, “Muscarinic antagonists” (priority 1991, dated 1994)

What was measured:
gastric acid production = details: clinical; in words; cited from earlier work
m1 muscarinic receptors = target: T1, m1 muscarinic receptors (Rattus norvegicus, UniProt P08482); assay: Irreversible labelling: [3H]NMS saturation of treated vs. control rat forebrain membranes; format: binding; details: in words
T1 sequence (P08482 1-460): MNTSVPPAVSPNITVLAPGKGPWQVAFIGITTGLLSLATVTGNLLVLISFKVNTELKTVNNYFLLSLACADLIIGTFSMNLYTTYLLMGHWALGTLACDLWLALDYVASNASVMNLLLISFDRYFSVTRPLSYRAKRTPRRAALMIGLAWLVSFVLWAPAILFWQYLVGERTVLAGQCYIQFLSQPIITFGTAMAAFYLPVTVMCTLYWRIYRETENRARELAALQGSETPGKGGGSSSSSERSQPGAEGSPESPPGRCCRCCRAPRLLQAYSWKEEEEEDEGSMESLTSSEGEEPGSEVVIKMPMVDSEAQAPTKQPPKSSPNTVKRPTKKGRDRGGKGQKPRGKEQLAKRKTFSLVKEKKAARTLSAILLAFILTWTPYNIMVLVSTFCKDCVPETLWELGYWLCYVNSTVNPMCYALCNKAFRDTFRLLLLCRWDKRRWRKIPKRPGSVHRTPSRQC
Protocol: When incubated with membranes from rat forebrain tissue […] followed by thorough washing, compound 41a caused an unrecoverable reduction in the Bmax at m1 receptors of 90-95% (from saturation of treated vs. control membranes with [3H]NMS).

| Structure (SMILES) | inhibition of gastric acid production (literature) (gastric acid production) | chemical affinity labelling of m1 receptors (m1 muscarinic receptors) |
| --- | --- | --- |
| CN1CCN(CC(=O)N2c3ccccc3C(=O)Nc3cccnc32)CC1 [pirenzepine] | useful clinically in the inhibition of gastric acid production |  |
| O=C1Nc2cccnc2N(C(=O)CN2CCN(CCCCCCCCCCNC(=S)Nc3cccc(N=C=S)c3)CC2)c2ccccc21 [Compound 41a, n=10, 5,11-Dihydro-11-[[4-[10-[(3-isothiocyanatophenyl)aminothiocarbonylamino]decyl]-1-piperazinyl]acetyl]-6H-pyrido[2,3-b][1,4]-benzodiazepine-6-one] |  | potent chemical affinity label for ml receptors |
